Test results from publication PMC5564600 (Oncotarget, 2017).
Where two headings read alike, the source gives them in different places.

How the values were obtained:
Experiment in all cases: biochemical
Assay type in all cases: binding
panel of 442 kinases [1] = molecular target: T1, panel of 442 kinases (Homo sapiens, UniProt Q16512); settings: kinase PKN1; for remaining activity at 1 µM: read-out: PKN1 (% of control at 1 µM)
T1 construct: purchased Ambit Biosciences (scanMAXX KINOMEscan)

panel of 442 kinases [2] = molecular target: T2, panel of 442 kinases (Homo sapiens, UniProt O94806); settings: kinase PRKD3; for remaining activity at 1 µM: read-out: PRKD3 (% of control at 1 µM)
T2 construct: purchased Ambit Biosciences (scanMAXX KINOMEscan)
T2 sequence (O94806 1-890): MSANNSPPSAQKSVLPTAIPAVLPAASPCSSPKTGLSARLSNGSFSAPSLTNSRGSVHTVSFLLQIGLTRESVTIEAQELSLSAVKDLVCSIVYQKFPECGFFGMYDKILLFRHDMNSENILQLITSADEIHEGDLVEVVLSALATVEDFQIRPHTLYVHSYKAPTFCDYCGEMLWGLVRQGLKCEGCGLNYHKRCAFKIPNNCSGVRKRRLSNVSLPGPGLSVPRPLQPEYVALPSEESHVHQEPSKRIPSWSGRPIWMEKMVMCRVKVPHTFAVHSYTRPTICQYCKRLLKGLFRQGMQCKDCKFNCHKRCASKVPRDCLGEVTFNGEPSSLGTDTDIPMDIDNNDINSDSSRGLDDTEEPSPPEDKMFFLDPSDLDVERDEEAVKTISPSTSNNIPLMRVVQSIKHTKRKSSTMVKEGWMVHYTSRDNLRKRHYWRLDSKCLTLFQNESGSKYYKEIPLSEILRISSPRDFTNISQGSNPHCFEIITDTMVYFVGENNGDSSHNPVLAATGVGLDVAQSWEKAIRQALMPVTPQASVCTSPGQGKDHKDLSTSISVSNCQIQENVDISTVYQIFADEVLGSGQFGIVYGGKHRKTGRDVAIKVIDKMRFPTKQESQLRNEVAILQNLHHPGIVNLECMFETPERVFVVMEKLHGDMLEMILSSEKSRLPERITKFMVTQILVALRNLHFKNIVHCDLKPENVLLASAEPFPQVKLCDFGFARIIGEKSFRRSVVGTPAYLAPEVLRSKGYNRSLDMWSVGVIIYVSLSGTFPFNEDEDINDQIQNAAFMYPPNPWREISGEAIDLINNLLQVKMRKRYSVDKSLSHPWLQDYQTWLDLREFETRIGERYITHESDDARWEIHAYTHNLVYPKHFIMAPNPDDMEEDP

panel of 442 kinases [3] = molecular target: T3, panel of 442 kinases (Homo sapiens, UniProt O15264); settings: kinase p38-delta; for remaining activity at 1 µM: read-out: % of control at 1 µM
T3 construct: purchased Ambit Biosciences (scanMAXX KINOMEscan)
T3 sequence (O15264 1-365): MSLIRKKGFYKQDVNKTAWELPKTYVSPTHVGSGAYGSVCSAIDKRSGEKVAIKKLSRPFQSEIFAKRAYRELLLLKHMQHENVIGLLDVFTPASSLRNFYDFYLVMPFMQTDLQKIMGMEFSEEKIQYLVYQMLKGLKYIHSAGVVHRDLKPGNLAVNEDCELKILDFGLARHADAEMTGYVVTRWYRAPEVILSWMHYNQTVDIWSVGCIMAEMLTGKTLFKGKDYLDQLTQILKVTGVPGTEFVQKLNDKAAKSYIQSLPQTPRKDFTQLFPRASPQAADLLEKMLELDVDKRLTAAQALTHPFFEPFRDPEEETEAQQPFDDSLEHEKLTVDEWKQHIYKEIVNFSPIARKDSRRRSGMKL

panel of 442 kinases [4] = molecular target: T4, panel of 442 kinases (Homo sapiens, UniProt Q59H18); settings: kinase TNNI3K; for remaining activity at 1 µM: read-out: TNNI3K (% of control at 1 µM)
T4 construct: purchased Ambit Biosciences (scanMAXX KINOMEscan)
T4 sequence (Q59H18 1-835): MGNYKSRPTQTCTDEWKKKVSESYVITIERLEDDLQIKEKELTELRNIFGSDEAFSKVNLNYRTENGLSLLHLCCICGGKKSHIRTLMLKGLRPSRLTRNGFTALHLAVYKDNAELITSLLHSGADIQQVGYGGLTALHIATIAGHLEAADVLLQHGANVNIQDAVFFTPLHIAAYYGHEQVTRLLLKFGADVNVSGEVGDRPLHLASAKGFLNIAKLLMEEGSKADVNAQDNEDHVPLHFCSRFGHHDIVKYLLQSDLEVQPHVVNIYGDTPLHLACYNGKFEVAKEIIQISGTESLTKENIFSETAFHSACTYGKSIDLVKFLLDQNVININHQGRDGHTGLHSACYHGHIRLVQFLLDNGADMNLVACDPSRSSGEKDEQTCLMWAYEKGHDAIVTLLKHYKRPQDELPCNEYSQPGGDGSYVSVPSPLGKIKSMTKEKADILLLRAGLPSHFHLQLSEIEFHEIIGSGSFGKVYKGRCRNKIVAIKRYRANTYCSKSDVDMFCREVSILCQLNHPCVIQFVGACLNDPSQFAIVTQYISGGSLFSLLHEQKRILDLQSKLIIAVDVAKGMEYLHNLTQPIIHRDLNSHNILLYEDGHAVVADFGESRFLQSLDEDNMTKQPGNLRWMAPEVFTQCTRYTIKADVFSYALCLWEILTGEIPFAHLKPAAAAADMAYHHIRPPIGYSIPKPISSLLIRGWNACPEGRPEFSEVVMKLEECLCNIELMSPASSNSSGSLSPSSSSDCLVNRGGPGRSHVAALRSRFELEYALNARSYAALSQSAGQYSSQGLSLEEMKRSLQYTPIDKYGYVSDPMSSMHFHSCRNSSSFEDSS

panel of 442 kinases [5] = molecular target: T5, panel of 442 kinases (Homo sapiens, UniProt P00519, T315I); settings: for remaining activity at 1 µM: read-out: % of control at 1 µM; for remaining activity at 10 µM: read-out: % of control at 10 µM
T5 construct: purchased Ambit Biosciences (scanMAXX KINOMEscan)

panel of 442 kinases [6] = molecular target: T6, panel of 442 kinases (Homo sapiens, UniProt P16234); settings: kinase PDGFRA; for remaining activity at 1 µM: read-out: % of control at 1 µM
T6 construct: purchased Ambit Biosciences (scanMAXX KINOMEscan)
T6 sequence (P16234 24-1089): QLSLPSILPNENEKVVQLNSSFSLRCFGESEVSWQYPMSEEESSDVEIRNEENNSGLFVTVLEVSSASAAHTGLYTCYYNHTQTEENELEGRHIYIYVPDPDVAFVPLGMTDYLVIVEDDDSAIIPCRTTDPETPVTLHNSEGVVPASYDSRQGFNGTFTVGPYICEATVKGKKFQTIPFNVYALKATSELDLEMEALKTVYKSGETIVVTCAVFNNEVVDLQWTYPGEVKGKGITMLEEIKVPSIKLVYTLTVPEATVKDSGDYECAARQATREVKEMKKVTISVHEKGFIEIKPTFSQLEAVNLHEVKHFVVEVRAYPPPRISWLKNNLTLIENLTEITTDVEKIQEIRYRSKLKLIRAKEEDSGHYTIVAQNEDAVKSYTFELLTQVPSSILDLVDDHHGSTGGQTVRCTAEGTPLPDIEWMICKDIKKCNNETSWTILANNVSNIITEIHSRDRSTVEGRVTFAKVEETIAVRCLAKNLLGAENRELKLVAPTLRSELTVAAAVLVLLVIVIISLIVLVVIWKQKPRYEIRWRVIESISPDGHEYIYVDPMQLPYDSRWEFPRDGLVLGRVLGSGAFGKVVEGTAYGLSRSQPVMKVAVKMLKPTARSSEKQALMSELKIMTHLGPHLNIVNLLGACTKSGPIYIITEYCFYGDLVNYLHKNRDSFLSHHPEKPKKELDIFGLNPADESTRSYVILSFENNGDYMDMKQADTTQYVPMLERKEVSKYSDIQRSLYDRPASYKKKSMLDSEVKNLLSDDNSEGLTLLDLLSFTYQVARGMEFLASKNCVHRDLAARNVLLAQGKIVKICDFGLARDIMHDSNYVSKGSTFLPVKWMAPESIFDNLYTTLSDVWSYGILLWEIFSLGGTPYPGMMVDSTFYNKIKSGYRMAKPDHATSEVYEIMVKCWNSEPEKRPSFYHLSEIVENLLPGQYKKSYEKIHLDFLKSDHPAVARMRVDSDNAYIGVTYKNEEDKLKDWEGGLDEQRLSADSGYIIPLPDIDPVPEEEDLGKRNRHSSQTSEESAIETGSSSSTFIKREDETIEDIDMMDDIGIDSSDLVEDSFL

panel of 442 kinases [7] = molecular target: T7, panel of 442 kinases (Homo sapiens, UniProt P04626); settings: ERBB2; for remaining activity at 1 µM: read-out: % of control at 1 µM
T7 construct: purchased Ambit Biosciences (scanMAXX KINOMEscan)
T7 sequence (P04626 23-1255): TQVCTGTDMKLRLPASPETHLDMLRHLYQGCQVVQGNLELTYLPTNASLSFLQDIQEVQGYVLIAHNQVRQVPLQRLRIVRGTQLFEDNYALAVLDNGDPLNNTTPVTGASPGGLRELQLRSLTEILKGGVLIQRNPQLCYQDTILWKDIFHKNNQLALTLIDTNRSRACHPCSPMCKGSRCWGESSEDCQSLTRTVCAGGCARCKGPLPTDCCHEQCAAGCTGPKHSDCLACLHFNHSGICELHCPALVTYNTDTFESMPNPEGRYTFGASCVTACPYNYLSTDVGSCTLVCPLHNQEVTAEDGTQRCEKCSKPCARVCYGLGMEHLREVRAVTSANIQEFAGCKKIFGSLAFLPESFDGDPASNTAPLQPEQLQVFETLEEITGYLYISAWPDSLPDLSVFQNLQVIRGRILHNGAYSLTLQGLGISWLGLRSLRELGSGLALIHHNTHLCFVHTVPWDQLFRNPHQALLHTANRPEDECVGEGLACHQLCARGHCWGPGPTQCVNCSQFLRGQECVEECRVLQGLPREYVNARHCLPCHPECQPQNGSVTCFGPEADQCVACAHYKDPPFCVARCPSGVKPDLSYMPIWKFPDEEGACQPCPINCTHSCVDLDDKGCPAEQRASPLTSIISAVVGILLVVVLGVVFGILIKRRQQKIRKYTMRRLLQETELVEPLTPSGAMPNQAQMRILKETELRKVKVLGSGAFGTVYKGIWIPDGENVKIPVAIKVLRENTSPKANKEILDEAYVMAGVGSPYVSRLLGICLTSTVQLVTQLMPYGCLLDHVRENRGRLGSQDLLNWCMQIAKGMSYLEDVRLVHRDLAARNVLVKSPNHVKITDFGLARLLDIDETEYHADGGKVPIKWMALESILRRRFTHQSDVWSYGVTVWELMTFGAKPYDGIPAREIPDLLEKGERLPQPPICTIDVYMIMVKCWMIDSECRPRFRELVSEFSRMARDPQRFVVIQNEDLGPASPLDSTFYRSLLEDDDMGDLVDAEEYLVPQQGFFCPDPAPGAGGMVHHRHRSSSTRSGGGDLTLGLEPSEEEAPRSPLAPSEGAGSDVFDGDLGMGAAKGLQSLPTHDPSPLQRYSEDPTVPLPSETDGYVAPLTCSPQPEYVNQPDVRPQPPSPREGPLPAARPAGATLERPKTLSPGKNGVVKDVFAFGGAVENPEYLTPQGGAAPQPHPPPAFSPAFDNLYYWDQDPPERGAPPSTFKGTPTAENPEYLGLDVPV

panel of 442 kinases [8] = molecular target: T8, panel of 442 kinases (Homo sapiens, UniProt P16591); settings: FER; for remaining activity at 1 µM: read-out: % of control at 1 µM
T8 construct: purchased Ambit Biosciences (scanMAXX KINOMEscan)
T8 sequence (P16591 whole entry): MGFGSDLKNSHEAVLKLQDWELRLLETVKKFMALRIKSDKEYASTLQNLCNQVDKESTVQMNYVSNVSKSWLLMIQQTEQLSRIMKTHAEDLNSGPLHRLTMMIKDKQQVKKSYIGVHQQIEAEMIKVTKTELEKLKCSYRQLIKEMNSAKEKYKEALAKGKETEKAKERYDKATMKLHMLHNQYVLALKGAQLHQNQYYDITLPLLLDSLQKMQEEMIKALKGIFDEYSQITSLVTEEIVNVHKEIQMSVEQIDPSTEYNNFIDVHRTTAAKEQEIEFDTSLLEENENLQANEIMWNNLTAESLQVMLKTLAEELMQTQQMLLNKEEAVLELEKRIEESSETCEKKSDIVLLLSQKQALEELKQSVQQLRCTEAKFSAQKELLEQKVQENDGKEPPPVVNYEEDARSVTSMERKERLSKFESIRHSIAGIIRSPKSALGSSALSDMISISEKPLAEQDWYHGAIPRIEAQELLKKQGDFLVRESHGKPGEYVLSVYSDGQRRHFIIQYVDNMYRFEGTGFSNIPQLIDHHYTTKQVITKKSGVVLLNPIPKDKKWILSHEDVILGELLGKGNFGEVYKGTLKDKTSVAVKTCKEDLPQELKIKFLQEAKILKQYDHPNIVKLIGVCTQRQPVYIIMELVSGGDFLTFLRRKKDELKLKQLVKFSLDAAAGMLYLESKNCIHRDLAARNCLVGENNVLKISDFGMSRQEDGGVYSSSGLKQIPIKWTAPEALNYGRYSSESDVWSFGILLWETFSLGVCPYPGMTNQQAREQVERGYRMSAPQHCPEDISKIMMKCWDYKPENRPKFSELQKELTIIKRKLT

[9] = 10 µM, read-out: % of control at 10 µM

T1 sequence (Q16512 whole entry): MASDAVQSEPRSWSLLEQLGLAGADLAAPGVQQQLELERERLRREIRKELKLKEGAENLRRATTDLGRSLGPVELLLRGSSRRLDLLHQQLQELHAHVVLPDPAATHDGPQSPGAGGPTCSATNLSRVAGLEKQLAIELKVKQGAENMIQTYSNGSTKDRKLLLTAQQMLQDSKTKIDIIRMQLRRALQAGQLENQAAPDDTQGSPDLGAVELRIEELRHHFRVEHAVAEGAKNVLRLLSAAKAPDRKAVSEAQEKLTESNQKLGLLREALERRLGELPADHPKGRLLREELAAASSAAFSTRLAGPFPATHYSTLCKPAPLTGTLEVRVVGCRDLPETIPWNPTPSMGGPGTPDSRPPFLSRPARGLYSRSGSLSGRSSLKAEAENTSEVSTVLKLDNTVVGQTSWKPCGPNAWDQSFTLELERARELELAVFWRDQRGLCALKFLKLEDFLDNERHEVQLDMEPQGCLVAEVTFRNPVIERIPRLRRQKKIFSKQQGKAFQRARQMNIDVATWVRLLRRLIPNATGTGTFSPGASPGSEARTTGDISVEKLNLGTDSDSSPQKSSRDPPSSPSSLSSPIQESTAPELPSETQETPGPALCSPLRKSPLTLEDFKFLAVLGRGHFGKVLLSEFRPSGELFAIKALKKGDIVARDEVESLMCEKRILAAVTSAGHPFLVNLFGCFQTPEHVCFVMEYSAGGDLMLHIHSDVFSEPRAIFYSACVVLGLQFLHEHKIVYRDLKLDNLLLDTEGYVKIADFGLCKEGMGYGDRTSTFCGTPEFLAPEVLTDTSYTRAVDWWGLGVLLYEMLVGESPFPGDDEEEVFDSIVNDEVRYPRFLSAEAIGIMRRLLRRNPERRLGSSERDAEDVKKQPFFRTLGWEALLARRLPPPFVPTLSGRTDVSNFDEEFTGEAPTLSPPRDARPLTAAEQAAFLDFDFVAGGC

Question: For `Nc1cc(C(F)(F)F)c(-c2cc(N3CCOCC3)nc(N3CCOCC3)n2)cn1` [Buparlisib], which remaining activity at 1 µM (panel of 442 kinases [1]) is on record?
Answer: 89%

Question: What about the remaining activity at 10 µM (panel of 442 kinases [1]; 10 µM, read-out: PKN1 (% of control at 10 µM)) of the same molecule?
Answer: 100%

Question: What about the remaining activity at 1 µM (panel of 442 kinases [2]) of the same molecule?
Answer: 94%

Question: And the remaining activity at 10 µM (panel of 442 kinases [2]; 10 µM, read-out: PRKD3 (% of control at 10 µM))?
Answer: 100%

Question: And the remaining activity at 1 µM (panel of 442 kinases [3])?
Answer: 73%

Question: What about the remaining activity at 10 µM (panel of 442 kinases [3]; [9]) of the same molecule?
Answer: 100%

Question: And the remaining activity at 1 µM (panel of 442 kinases [4])?
Answer: 100%

Question: What about the remaining activity at 10 µM (panel of 442 kinases [4]; 10 µM, read-out: TNNI3K (% of control at 10 µM)) of the same molecule?
Answer: 100%

Question: What about the remaining activity at 1 µM (panel of 442 kinases [5]; ABL1(T315I)-nonphosphorylated) of the same molecule?
Answer: 94%

Question: What about the remaining activity at 10 µM (panel of 442 kinases [5]; ABL1(T315I)-nonphosphorylated) of the same molecule?
Answer: 78%

Question: And the remaining activity at 1 µM (panel of 442 kinases [5]; ABL1(T315I)-phosphorylated)?
Answer: 73%

Question: And the remaining activity at 10 µM (panel of 442 kinases [5]; ABL1(T315I)-phosphorylated)?
Answer: 100%

Question: What about the remaining activity at 1 µM (panel of 442 kinases [6]) of the same molecule?
Answer: 100%

Question: And the remaining activity at 10 µM (panel of 442 kinases [6]; [9])?
Answer: 100%

Question: What about the remaining activity at 1 µM (panel of 442 kinases [7]) of the same molecule?
Answer: 85%

Question: And the remaining activity at 10 µM (panel of 442 kinases [7]; [9])?
Answer: 100%

Question: And the remaining activity at 1 µM (panel of 442 kinases [8])?
Answer: 100%

Question: And the remaining activity at 10 µM (panel of 442 kinases [8]; [9])?
Answer: 100%

Question: Which results are given for `Cn1c(=O)n(-c2ccc(C(C)(C)C#N)cc2)c2c3cc(-c4cnc5ccccc5c4)ccc3ncc21` [Dactolisib, 2-methyl-2-[4-(3-methyl-2-oxo-8-quinolin-3-yl-2,3-dihydroimidazo[4,5-c]quinolin-1-yl)-phenyl] propionitrile]?
Answer: remaining activity at 1 µM (panel of 442 kinases [1]): 100%; remaining activity at 1 µM (panel of 442 kinases [2]): 100%; remaining activity at 1 µM (panel of 442 kinases [3]): 56%; remaining activity at 1 µM (panel of 442 kinases [4]): 76%; remaining activity at 1 µM (panel of 442 kinases [5]; ABL1(T315I)-nonphosphorylated): 58%; remaining activity at 1 µM (panel of 442 kinases [6]): 100%; remaining activity at 1 µM (panel of 442 kinases [7]): 100%; remaining activity at 1 µM (panel of 442 kinases [8]): 60%

Question: For `COc1ncc(-c2ccc3nccc(-c4ccnnc4)c3c2)cc1NS(=O)(=O)c1ccc(F)cc1F` [Omipalisib], which remaining activity at 1 µM (panel of 442 kinases [1]) is on record?
Answer: 94%

Question: What about the remaining activity at 1 µM (panel of 442 kinases [2]) of the same molecule?
Answer: 100%

Question: What about the remaining activity at 1 µM (panel of 442 kinases [3]) of the same molecule?
Answer: 94%

Question: And the remaining activity at 1 µM (panel of 442 kinases [4])?
Answer: 100%

Question: What about the remaining activity at 1 µM (panel of 442 kinases [5]; ABL1(T315I)-nonphosphorylated) of the same molecule?
Answer: 98%

Question: And the remaining activity at 1 µM (panel of 442 kinases [5]; ABL1(T315I)-phosphorylated)?
Answer: 81%

Question: What about the remaining activity at 1 µM (panel of 442 kinases [6]) of the same molecule?
Answer: 100%

Question: What about the remaining activity at 1 µM (panel of 442 kinases [7]) of the same molecule?
Answer: 100%

Question: And the remaining activity at 1 µM (panel of 442 kinases [8])?
Answer: 100%

Question: Which remaining activity at 1 µM (panel of 442 kinases [1]) does the source give for `FC(F)c1nc2ccccc2n1-c1nc(N2CCOCC2)nc(N2CCOCC2)n1` [ZSTK474, 2-(difluoromethyl)-1-[4,6-di(4-morpholinyl)-1,3,5-triazin-2-yl]-1H-benzimidazole] here?
Answer: 90%

Question: And the remaining activity at 1 µM (panel of 442 kinases [2])?
Answer: 100%

Question: And the remaining activity at 1 µM (panel of 442 kinases [3])?
Answer: 100%

Question: And the remaining activity at 1 µM (panel of 442 kinases [4])?
Answer: 95%

Question: What about the remaining activity at 1 µM (panel of 442 kinases [5]; ABL1(T315I)-nonphosphorylated) of the same molecule?
Answer: 50%

Question: And the remaining activity at 1 µM (panel of 442 kinases [5]; ABL1(T315I)-phosphorylated)?
Answer: 100%

Question: What about the remaining activity at 1 µM (panel of 442 kinases [6]) of the same molecule?
Answer: 85%

Question: What about the remaining activity at 1 µM (panel of 442 kinases [7]) of the same molecule?
Answer: 100%

Question: And the remaining activity at 1 µM (panel of 442 kinases [8])?
Answer: 55%
